{
  "source": "patent US20190167579A1",
  "about": "“ITRACONAZOLE DRY POWDERS” (priority 2017, published 2019)",
  "tested_on": "Calu-3 cell line",
  "test": "cNGI integrated dissolution and permeability on Calu-3 monolayers",
  "type": "in vitro ADME",
  "method": "A bio-relevant dissolution testing system was used based on mimicking the air-liquid interface at the respiratory epithelium interface using a cell-based in vitro method. A modified next generation impactor that incorporated cell culture plates onto collection stages (cNGI) was used to uniformly deposit materials onto the cell cultures. Dissolution and permeation of the drug through the epithelial cell monolayer was measured.\nEpithelial cell monolayers grown at the air-liquid interface in Snapwell™ (Corning Costar, Massachusetts, USA) permeable insert were integrated into the cNGI. […] The transepithelial electrical resistance (TEER) was measured using an EVOM2 chopstick electrode connected to an EVOM2 Epithelial Voltohmmeter (World Precision Instruments, Hitchin, United Kingdom) and monolayers with a TEER above 450 Ω·cm^2 were deemed confluent. […]\nPost-dosing of the dose on to the Snapwells from stage 4, the Snapwells were transferred to 6-well plates, which contained 2mL of PBS pH 7.4±2.0% SDS maintained at 37° C. Basolateral samples were taken at different time points and drug content was measured on an Agilent (Santa Clara, Calif., USA) 1260 Infinity series HPLC. Total dose delivered to the cells was measured from the total amount of drug dissolved over the time-course and from lysing cells post experimentation. […]",
  "data": [
    {"smiles": "CCC(C)n1ncn(-c2ccc(N3CCN(c4ccc(OCC5COC(Cn6cncn6)(c6ccc(Cl)cc6Cl)O5)cc4)CC3)cc2)c1=O", "note": "(stereo not shown) [Pure ITZ, Itraconazole]", "values": [
      {"measurement": "Dissolution and permeability kinetics, comparison", "result": "slower"}
    ]}
  ]
}
